Measured values as given in ChEMBL document CHEMBL1201862, “PubChem BioAssay data set” (2004).
Activity calls are given as the source filed them.

What was measured:
[1] = biological target: Heat shock protein HSP 90-alpha (Homo sapiens, UniProt P07900); assay: Luminescence-based dose response biochemical high throughput screening assay for inhibitors of the Heat Shock Protein 90 (HSP90). [Related pubchem assays: 1831 (Summary AID.), 1846 (Confirmation screen.), 1789 (Primary screen.)]
[2] = biological target: T1, Corticotropin-releasing factor receptor 2/Corticotropin-releasing factor-binding protein (Homo sapiens, UniProt P24387+Q13324); assay: activators of CRF receptor 2 with binding protein – uHTS hits, confirmation (AID 602473); type: functional; details: read-out: EC50_Mean
T1 sequence (Q13324 whole entry): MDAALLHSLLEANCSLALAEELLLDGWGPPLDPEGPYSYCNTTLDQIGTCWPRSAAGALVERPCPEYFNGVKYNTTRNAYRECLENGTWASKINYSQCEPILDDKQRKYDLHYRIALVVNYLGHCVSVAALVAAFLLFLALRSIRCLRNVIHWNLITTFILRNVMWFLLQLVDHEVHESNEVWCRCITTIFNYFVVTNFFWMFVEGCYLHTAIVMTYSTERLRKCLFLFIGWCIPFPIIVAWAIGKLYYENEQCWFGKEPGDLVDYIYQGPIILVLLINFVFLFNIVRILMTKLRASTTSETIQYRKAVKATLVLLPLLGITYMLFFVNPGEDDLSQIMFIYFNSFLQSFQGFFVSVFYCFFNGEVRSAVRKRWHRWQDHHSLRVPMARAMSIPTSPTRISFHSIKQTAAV
T1 sequence (P24387 whole entry): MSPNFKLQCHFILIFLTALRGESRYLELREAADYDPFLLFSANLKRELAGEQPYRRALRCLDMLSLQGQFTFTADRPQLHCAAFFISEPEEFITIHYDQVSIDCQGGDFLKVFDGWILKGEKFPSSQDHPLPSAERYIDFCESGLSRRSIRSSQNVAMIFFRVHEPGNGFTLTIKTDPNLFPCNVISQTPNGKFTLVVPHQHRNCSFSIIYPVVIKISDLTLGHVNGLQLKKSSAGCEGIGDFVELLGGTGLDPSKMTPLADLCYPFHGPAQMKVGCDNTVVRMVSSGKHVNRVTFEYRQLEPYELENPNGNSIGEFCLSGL

[3] = A Cell Based Secondary Assay To Explore Cytotoxicity of Compounds that Sensitize Mycobacterium Tuberculosis to Beta-Lactam Antibiotics.; type: functional
[4] = biological target: T2, Mannose-6-phosphate isomerase (Homo sapiens, UniProt P34949); assay: MPI inhibition at elevated mannose 6-phosphate – biochemical, fluorescence intensity, high mannose 6-phosphate, primary screen (AID 1220)
T2 sequence (P34949 whole entry): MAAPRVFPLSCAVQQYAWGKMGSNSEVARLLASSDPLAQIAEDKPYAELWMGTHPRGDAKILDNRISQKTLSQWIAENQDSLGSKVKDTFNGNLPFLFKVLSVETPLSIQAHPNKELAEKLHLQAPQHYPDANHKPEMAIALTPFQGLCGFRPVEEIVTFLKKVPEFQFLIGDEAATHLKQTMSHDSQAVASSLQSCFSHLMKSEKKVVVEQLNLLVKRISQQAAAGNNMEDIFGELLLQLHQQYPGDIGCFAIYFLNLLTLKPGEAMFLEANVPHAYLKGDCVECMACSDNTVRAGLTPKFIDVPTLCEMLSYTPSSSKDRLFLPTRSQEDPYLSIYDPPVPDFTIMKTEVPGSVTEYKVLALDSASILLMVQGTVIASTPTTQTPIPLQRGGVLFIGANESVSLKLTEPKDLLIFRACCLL

[5] = biological target: DNA dC->dU-editing enzyme APOBEC-3G (Homo sapiens, UniProt Q9HC16); assay: Dose Response confirmation of small molecule APOBEC3G DNA Deaminase Inhibitors via a fluorescence-based single-stranded DNA deaminase assay. [Related pubchem assays (depositor defined):AID493012, AID493028]; type: functional
[6] = HIV-1 Vif–A3G interaction blockers – biochemical, TR-FRET, GST-Vif 1-94, biotin-A3G peptide, dose response retest, primary screen (AID 1117319); type: functional;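 further: TR-FRET signal of purified GST-Vif binding a biotinylated A3G peptide; inhibitors lower the FRET signal by blocking Vif and A3G binding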
Genome polyprotein = Genome polyprotein (Hepatitis C virus, UniProt Q2Q167); assay: disruption of hepatitis C core self-association – biochemical, TR-FRET, dose response (AID 2159); parameters: species or system Hepacivirus hominis;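 further: blocks dimerization of HCV core protein measured by TR-FRET between tagged core106 pairs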
cells [7] = type: functional, cell-based
[8] = M. tuberculosis H37Rv growth inhibitors, H37Rv strain (AID 1626); type: functional
cells [9] = type: functional, cell-based; remark: listed apart in the source
[10] = biological target: Voltage-gated inwardly rectifying potassium channel KCNH2 (Homo sapiens, UniProt Q12809); assay: concentration-dependent hERG rescue from blockers – cell-based, thallium flux, dose response (AID 2121); type: ADME
Sequence of Voltage-gated inwardly rectifying potassium channel KCNH2 (Q12809 whole entry): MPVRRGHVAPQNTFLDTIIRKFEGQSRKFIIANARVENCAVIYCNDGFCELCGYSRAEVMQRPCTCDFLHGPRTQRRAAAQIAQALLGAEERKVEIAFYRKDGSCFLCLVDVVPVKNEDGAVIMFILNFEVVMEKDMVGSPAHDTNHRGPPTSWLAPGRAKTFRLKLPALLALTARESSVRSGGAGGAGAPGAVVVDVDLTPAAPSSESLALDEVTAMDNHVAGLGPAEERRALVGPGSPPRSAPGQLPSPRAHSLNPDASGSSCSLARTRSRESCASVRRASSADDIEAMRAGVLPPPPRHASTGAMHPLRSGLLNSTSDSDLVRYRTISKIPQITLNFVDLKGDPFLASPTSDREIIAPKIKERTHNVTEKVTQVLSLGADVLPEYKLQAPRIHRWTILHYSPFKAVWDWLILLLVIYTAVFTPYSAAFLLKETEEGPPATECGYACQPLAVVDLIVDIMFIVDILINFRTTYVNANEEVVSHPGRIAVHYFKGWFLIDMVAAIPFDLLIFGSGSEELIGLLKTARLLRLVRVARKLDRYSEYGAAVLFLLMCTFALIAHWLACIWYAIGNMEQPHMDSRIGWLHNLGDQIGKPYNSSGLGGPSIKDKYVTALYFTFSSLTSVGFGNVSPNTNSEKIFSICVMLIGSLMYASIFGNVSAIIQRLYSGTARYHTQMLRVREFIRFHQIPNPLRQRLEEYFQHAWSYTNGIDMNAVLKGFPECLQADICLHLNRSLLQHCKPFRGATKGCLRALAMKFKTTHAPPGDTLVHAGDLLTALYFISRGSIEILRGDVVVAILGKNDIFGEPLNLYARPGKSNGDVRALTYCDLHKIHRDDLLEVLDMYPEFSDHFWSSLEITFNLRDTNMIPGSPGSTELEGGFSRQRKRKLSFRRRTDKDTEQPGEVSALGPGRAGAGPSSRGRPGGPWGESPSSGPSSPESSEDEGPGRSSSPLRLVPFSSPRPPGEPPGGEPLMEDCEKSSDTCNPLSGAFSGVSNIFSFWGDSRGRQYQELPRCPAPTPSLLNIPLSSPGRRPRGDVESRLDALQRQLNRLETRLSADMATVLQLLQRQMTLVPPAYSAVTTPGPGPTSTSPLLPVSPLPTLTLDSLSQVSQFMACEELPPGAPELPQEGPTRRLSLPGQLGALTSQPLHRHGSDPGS

Sequence of Genome polyprotein (Q2Q167 whole entry): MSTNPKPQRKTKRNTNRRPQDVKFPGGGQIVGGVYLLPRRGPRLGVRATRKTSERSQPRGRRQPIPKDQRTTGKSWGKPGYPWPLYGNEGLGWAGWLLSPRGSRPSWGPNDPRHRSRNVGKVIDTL
Sequence of DNA dC->dU-editing enzyme APOBEC-3G (Q9HC16 whole entry): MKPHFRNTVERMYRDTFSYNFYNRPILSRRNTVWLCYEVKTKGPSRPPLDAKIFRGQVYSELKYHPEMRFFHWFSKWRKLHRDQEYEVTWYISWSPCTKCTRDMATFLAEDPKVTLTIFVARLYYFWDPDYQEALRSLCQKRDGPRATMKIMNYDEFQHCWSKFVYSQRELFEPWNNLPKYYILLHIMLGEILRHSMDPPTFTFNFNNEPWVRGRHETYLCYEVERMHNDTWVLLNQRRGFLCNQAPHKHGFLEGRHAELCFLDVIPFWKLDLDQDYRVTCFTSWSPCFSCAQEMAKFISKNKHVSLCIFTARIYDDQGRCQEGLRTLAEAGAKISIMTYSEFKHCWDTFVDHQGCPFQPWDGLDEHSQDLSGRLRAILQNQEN

Cc1ccc2oc(=O)c(/C=C(\O)c3ccco3)nc2c1
IC50 [1]: 5.13 µM (active) | EC50 [2]: 4.74 µM (active)

Cc1cccc(OCc2n[nH]c(-c3ccccn3)n2)c1
CC50 [3]: 28 µM (active)

Cc1cccc(N(O)C(=O)Nc2cccc(Cl)c2)c1
IC50 [1]: 5.44 µM (active)

O=C(/C=C/c1ccccc1)Nc1cccc(S(=O)(=O)Nc2ccccc2F)c1
IC50 [4]: 20 µM (active) | IC50 [5]: 31.9 µM (active)

Cc1ccc(CCNC(=O)C2CCCN(S(=O)(=O)c3c(C)noc3/C=C/N(C)C)C2)cc1 (configuration not stated)
IC50 [6]: > 100 µM (active)

CCCCn1c(SCC(=O)Nc2cc(C)on2)nc2ccccc2c1=O
IC50 (Genome polyprotein): > 49.8 µM (not active)

CCOc1ccc(/C=C/C(=O)c2ccccc2)cc1OC
EC50 (cells [7]): > 350 µM (not active) | IC50 [8]: > 100 µM (active) | EC50 (cells [9]): 10.2 µM (active)

COC(=O)c1c(NS(=O)(=O)c2ccc3ccccc3c2)sc2c1CCCC2
EC50 [10]: 7.18 µM (active)
